Results published in PubChem BioAssay (NCI).
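Grown in 96-well plates, cells were treated for 48 hours with each compound at five concentrations. Insufficient inhibition: endpoint recorded as highest concentration tested. Abbreviation: GI50, concentration required for 50% inhibition of growth. At the TGI there is no net growth.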

Legend:
Assay in all cases: NCI-60 cell line screen, 48 h
[1] = test system: SF-539 CNS
[2] = test system: PC-3 prostate
[3] = test system: RXF 393 renal
[4] = test system: K-562 leukemia
[5] = test system: 786-0 renal
[6] = test system: U251 CNS
[7] = test system: NCI-H522 lung
[8] = test system: CCRF-CEM leukemia
[9] = test system: SK-MEL-5 melanoma
[10] = test system: DU-145 prostate
[11] = test system: MDA-MB-435
[12] = test system: SNB-75 CNS
[13] = test system: T-47D breast
[14] = test system: IGROV1 ovarian
[15] = test system: HL-60(TB) leukemia
[16] = test system: CAKI-1 renal
[17] = test system: NCI-H460 lung
[18] = test system: OVCAR-3 ovarian
[19] = test system: SNB-19 CNS
[20] = test system: HCT-116 colon
[21] = test system: OVCAR-4 ovarian
[22] = test system: KM12 colon
[23] = test system: SW-620 colon
[24] = test system: COLO 205 colon
[25] = test system: HOP-62 NSCLC
[26] = test system: ACHN renal
[27] = test system: SF-295 CNS
[28] = test system: BT-549 breast
[29] = test system: MDA-MB-231 breast
[30] = test system: OVCAR-8 ovarian
[31] = test system: TK-10 renal
[32] = test system: M14 melanoma
[33] = test system: EKVX NSCLC
[34] = test system: MOLT-4 leukemia
[35] = test system: A549 NSCLC
[36] = test system: MCF7 breast
[37] = test system: NCI/ADR-RES ovarian
[38] = test system: SK-MEL-28 melanoma
[39] = test system: UACC-62 melanoma
[40] = test system: HT29 colon
[41] = test system: SK-MEL-2 melanoma
[42] = test system: RPMI-8226 leukemia
[43] = test system: NCI-H23 lung
[44] = test system: A498 renal
[45] = test system: UO-31 renal
[46] = test system: UACC-257 melanoma
[47] = test system: SK-OV-3 ovarian
[48] = test system: HCT-15 colon
[49] = test system: SF-268 CNS
[50] = test system: LOX IMVI melanoma
[51] = test system: MALME-3M melanoma
[52] = test system: HS 578T breast
[53] = test system: HOP-92 NSCLC
[54] = test system: SN12C renal
[55] = test system: NCI-H226 lung
[56] = test system: OVCAR-5 ovarian

O=C1C=Cc2cscc21
TGI [1]: > 100 µM | TGI [2]: > 100 µM | TGI [3]: 32.8 µM | TGI [4]: > 100 µM | TGI [5]: 31.4 µM | TGI [6]: > 100 µM | TGI [7]: 42.5 µM | TGI [8]: 52.6 µM | TGI [9]: > 100 µM | TGI [10]: > 100 µM | TGI [11]: > 100 µM | TGI [12]: > 100 µM | TGI [13]: 81.5 µM | TGI [14]: > 100 µM | TGI [15]: > 100 µM | TGI [16]: 67 µM | TGI [17]: > 100 µM | TGI [18]: 47.7 µM | TGI [19]: > 100 µM | TGI [20]: 29.3 µM | TGI [21]: > 100 µM | TGI [22]: > 100 µM | TGI [23]: > 100 µM | TGI [24]: > 100 µM | TGI [25]: > 100 µM | TGI [26]: > 100 µM | TGI [27]: > 100 µM | TGI [28]: > 100 µM | TGI [29]: 80.6 µM | TGI [30]: > 100 µM | TGI [31]: > 100 µM | TGI [32]: 84.5 µM | TGI [33]: > 100 µM | TGI [34]: 37.5 µM | TGI [35]: > 100 µM | TGI [36]: 68.1 µM | TGI [37]: > 100 µM | TGI [38]: > 100 µM | TGI [39]: > 100 µM | TGI [40]: > 100 µM | TGI [41]: > 100 µM | TGI [42]: > 100 µM | TGI [43]: > 100 µM | TGI [44]: > 100 µM | TGI [45]: 85.8 µM | TGI [46]: > 100 µM | TGI [47]: > 100 µM | TGI [48]: 66.9 µM | TGI [49]: > 100 µM | TGI [50]: > 100 µM | TGI [51]: 63.7 µM | TGI [52]: > 100 µM | TGI [53]: > 100 µM | TGI [54]: 96.8 µM

CCOC(=O)c1cc(NC(=O)c2cc(NC(=O)c3cc(NC(=O)c4c(-c5ccccc5)noc4C)cn3C)cn2C)cn1C
GI50 [2]: 19.2 µM | TGI [2]: > 100 µM | GI50 [3]: > 100 µM | TGI [3]: > 100 µM | GI50 [4]: 9.3 µM | TGI [4]: > 100 µM | GI50 [5]: > 100 µM | TGI [5]: > 100 µM | GI50 [6]: > 100 µM | TGI [6]: > 100 µM | GI50 [7]: > 100 µM | TGI [7]: > 100 µM | GI50 [9]: > 100 µM | TGI [9]: > 100 µM | GI50 [10]: 16.9 µM | TGI [10]: > 100 µM | GI50 [11]: > 100 µM | TGI [11]: > 100 µM | GI50 [12]: > 100 µM | TGI [12]: > 100 µM | GI50 [13]: > 100 µM | TGI [13]: > 100 µM | GI50 [14]: > 100 µM | TGI [14]: > 100 µM | GI50 [15]: 10.6 µM | TGI [15]: > 100 µM | GI50 [16]: > 100 µM | TGI [16]: > 100 µM | GI50 [17]: > 100 µM | TGI [17]: > 100 µM | GI50 [18]: 47.9 µM | TGI [18]: > 100 µM | GI50 [19]: > 100 µM | TGI [19]: > 100 µM | GI50 [21]: > 100 µM | TGI [21]: > 100 µM | GI50 [22]: > 100 µM | TGI [22]: > 100 µM | GI50 [55]: 60.3 µM | TGI [55]: > 100 µM | GI50 [23]: > 100 µM | TGI [23]: > 100 µM | GI50 [24]: > 100 µM | TGI [24]: > 100 µM | GI50 [26]: > 100 µM | TGI [26]: > 100 µM | GI50 [27]: > 100 µM | TGI [27]: > 100 µM | GI50 [28]: 4.37 µM | TGI [28]: 59.5 µM | GI50 [29]: 35 µM | TGI [29]: > 100 µM | GI50 [31]: > 100 µM | TGI [31]: > 100 µM | GI50 [32]: 47.1 µM | TGI [32]: > 100 µM | GI50 [34]: 8.97 µM | TGI [34]: > 100 µM | GI50 [36]: > 100 µM | TGI [36]: > 100 µM | GI50 [37]: > 100 µM | TGI [37]: > 100 µM | GI50 [38]: > 100 µM | TGI [38]: > 100 µM | GI50 [56]: > 100 µM | TGI [56]: > 100 µM | GI50 [39]: 44.4 µM | TGI [39]: > 100 µM | GI50 [40]: > 100 µM | TGI [40]: > 100 µM | GI50 [41]: > 100 µM | TGI [41]: > 100 µM | GI50 [43]: > 100 µM | TGI [43]: > 100 µM | GI50 [44]: > 100 µM | TGI [44]: > 100 µM | GI50 [45]: > 100 µM | TGI [45]: > 100 µM | GI50 [47]: > 100 µM | TGI [47]: > 100 µM | GI50 [48]: > 100 µM | TGI [48]: > 100 µM | GI50 [49]: > 100 µM | TGI [49]: > 100 µM | GI50 [50]: > 100 µM | TGI [50]: > 100 µM | GI50 [51]: 91.2 µM | TGI [51]: > 100 µM | GI50 [52]: > 100 µM | TGI [52]: > 100 µM | GI50 [53]: 241 nM | TGI [53]: 4.36 µM | GI50 [54]: 73.4 µM | TGI [54]: > 100 µM
